Results: patent US8404651B2, “Compositions and methods for treating viral infections” (priority 2008, dated 2013)
Where “and” joins values, the source holds several entries; their conditions need not be identical. Identical values can stand only once.

Tests used:
[1] = MTT cytotoxicity assay, HFF; assay type: cell-based; details: human, HFF cells, 24-hour incubation
Procedure: (§1) Cellular cytotoxicity profile of the compounds was carried out against a panel of cell lines. Standard MTT assays were performed in 96-well plates using the Promega CellTiter96 Non-radioactive Cell Proliferation Assay Kit in conjunction with a 96-well Plate Reader (ThermoMax, Molecular devices), and MDBK, Vero, and HFF cell lines (obtained from ATCC). Several controls were employed including the nucleoside analogs 3TC, AZT, and ddC, as well as, media without drugs. SDS was used as a positive cytotoxic control. The compounds were tested in triplicate at concentrations of 100, 300, and 1000 μM. Following a 24-hour incubation of cells with the test substance, the MTT assay was carried out.

[2] = Cytotoxicity by neutral red dye uptake in replicon cultures in parallel plates; details: human
Procedure: (§2) Primary anti-HCV assay-Antiviral activity against HCV was assessed in a 3-day assay (Okuse, et al., 2005; Antiviral. Res. 65:23; Korba, et al., 2008, Antiviral Res. 77:56) using the stably-expressing HCV replicon cell line, AVA5 [sub-genomic (CON1), genotype 1b](Blight, et al., 2000, Science 290:1972) maintained as sub-confluent cultures on 96-well plates. Antiviral activity was determined by blot hybridization analysis of intracellular HCV RNA (normalized to the level of cellular B-actin RNA in each culture sample). Cytotoxicity was assessed by neutral red dye uptake in cultures maintained in parallel plates.
(§3) EC50, EC90, and CC50 values were calculated by linear regression analysis (MS EXCEL®, QUATTROPRO®) using data combined from all treated cultures Korba & Gerin, 1992, Antivir. Res. 19:55; Okuse, et al., 2005, Antivir. Res. 65:23). Standard deviations for EC50 and EC90 values were calculated from the standard errors generated by the regression analyses. […] The Selectivity index (S.I.) was calculated as CC50/EC50. Recombinant human interferon 2b (PBL laboratories, Inc.) was used as an assay control.
(§4) For each combination of agents, three concentration ratios, centered on the use of the compounds at equipotent antiviral concentrations, were used. A dilution series (six three-fold-concentration steps, beginning at the approximate EC90) was then generated with the concentration ratio of the two agents remaining the same in each dilution step. Toxicity analysis was performed as described above for the monotherapies. Analysis of drug interactions in the combination studies was determined by the use of the […] program (Biosoft, Inc., Cambridge, United Kingdom). This program evaluates synergy, additivity, or antagonism by use of several methodologies, including that of Chou and Talalay with a statistical analysis employing the Monte Carlo technique to provide confidence limits, fraction-affected-confidence interval (FA-CI) plots, isobolograms, and median-effect plots. (Belenkii, M. S. Schinazi, R. A method for the analysis of combination therapies with statistical analysis. Antiviral Res. 25, 11, 2005).

[3] = tested on: HCV replicon cell line, AVA5; test: as above; details: Table 5, Compound 2 alone or in combination, genotype 1B
Procedure: as §2, §3, §4

[4] = MTT cytotoxicity assay, Vero; assay type: cell-based; details: African green monkey, Vero cells, 24-hour incubation
Procedure: as §1

[5] = tested on: HCV replicon cell line, AVA5 [sub-genomic (CON1), genotype 1b]; test: microbe, parasite or virus in culture; assay type: cell-based; details: Hepatitis C virus
Procedure: as §2, §3, §4

TA1537 = test: In vitro bacterial mutagenicity assay (pre-incubation), strain TA1537; details: for Number of revertants x1, x2, x3: individual plates
Procedure: (§5) Dispense 100 microliter aliquots of the appropriate bacterial cultures into sample tubes stored on ice. Dispense aliquots of the vehicle, positive controls or dose formulations into the appropriate sample tubes. 2 mL top Agar and HBT cap was added to the sample tube, inverted three times and poured into MG plate. The lid was replaced on the plate and left on a level surface to let the agar harden. The plates were incubated in an incubator for 48 to 72 h. The background lawn and count the number of revertants was checked for each plate.

[6] = In vitro cytotoxicity, HepG2; assay type: cell-based; details: human, HepG2 cells
[7] = MTT cytotoxicity assay, MDBK; assay type: cell-based; details: cattle, MDBK cells, 24-hour incubation
Procedure: as §1

[8] = tested on: replicon cell line containing H/FL-Neo (genotype 1a (H77), full length construct); test: Secondary anti-HCV assay: genotype 1a replicon, format of the primary assay; assay type: cell-based; details: Hepatitis C virus
From the text: Res. 19:55; Okuse, et al., 2005, Antivir. Res. 65:23).
Secondary anti-HCV assay—This assay assesses activity against different HCV genotypes using the format described for the primary assay. Activity against the genotype 1b HCV is included for comparison. Currently available is a replicon cell line containing H/FL-Neo (genotype 1a (H77), full length construct) (Blight, et al., 2003, J. Virol. 77:3181).

[9] = tested on: bacterial strains TA1535, TA1537, TA98, TA100, WP2 uvrA; test: In vitro bacterial mutagenicity assay, overall conclusions for all strains
Procedure: as §5

TA98 = test: In vitro bacterial mutagenicity assay (pre-incubation), strain TA98; details: for Number of revertants x1, x2, x3: individual plates
Procedure: as §5

[10] = TA1537, absence of S9, 50 μg/plate
[11] = TA1537, absence of S9, 158 μg/plate
[12] = TA1537, absence of S9, 500 μg/plate
[13] = TA1537, absence of S9, 1581 μg/plate
[14] = TA1537, absence of S9, 5000 μg/plate
[15] = TA1537, presence of S9, 50 μg/plate
[16] = TA1537, presence of S9, 158 μg/plate
[17] = TA1537, presence of S9, 500 μg/plate
[18] = TA1537, presence of S9, 1581 μg/plate
[19] = TA1537, presence of S9, 5000 μg/plate
[20] = TA98, absence of S9, 50 μg/plate
[21] = TA98, absence of S9, 158 μg/plate
[22] = TA98, absence of S9, 500 μg/plate
[23] = TA98, absence of S9, 1581 μg/plate
[24] = TA98, absence of S9, 5000 μg/plate
[25] = TA98, presence of S9, 50 μg/plate
[26] = TA98, presence of S9, 158 μg/plate
[27] = TA98, presence of S9, 500 μg/plate
[28] = TA98, presence of S9, 1581 μg/plate
[29] = TA98, presence of S9, 5000 μg/plate

COC1C(OP(=O)(OC[C@H]2O[C@@H](n3cnc4c(N)ncnc43)CC2O)SCOC(=O)OC(C)C)[C@@H](CO)O[C@H]1n1ccc(=O)[nH]c1=O (some centres unmarked) [Compound 2, S-isopropylcarbonyloxymethyl thiophosphate (6k) of 3′dApsU2′OMe]
CC50 at 24 h [1]: > 1000 µM
CC50 at 3 day [2]: > 100 µM
CC50 [3]: > 100 µM
CC50 at 24 h [4]: > 1000 µM
EC50 ([5]; Ava5, read-out: EC50 HCV type 1B): 1 µM
EC90 ([5]; Ava5, read-out: EC90 HCV type 1B): 6 µM
Number of revertants mean (TA1537; [10]): 11
Number of revertants x1, x2, x3 (TA1537; [10]): 8 and 17 and 9
Number of revertants mean (TA1537; [11]): 12
Number of revertants x1, x2, x3 (TA1537; [11]): 9 and 8 and 19
Number of revertants mean (TA1537; [12]): 10
Number of revertants x1, x2, x3 (TA1537; [12]): 15 and 6 and 10
Number of revertants mean (TA1537; [13]): 15
Number of revertants x1, x2, x3 (TA1537; [13]): 17 and 15 and 13
Number of revertants mean (TA1537; [14]): 11
Number of revertants x1, x2, x3 (TA1537; [14]): 15 and 9 and 8
Number of revertants mean (TA1537; [15]): 17
Number of revertants x1, x2, x3 (TA1537; [15]): 20 and 17 and 15
Number of revertants mean (TA1537; [16]): 18
Number of revertants x1, x2, x3 (TA1537; [16]): 16 and 18 and 21
Number of revertants mean (TA1537; [17]): 17
Number of revertants x1, x2, x3 (TA1537; [17]): 25 and 12 and 15
Number of revertants mean (TA1537; [18]): 15
Number of revertants x1, x2, x3 (TA1537; [18]): 18 and 15 and 13
Number of revertants mean (TA1537; [19]): 12
Number of revertants x1, x2, x3 (TA1537; [19]): 11 and 15 and 10
CC50 [6]: > 100 µM
CC50 at 24 h [7]: > 1000 µM
EC50 ([8]; read-out: EC50 HCV Type 1A): 2.2 µM
EC90 ([8]; read-out: EC90 HCV type 1A): 8 µM
increases in the revertant colony counts ([9]; any strain, absence or presence of S9 mix): No substantial increases in the revertant colony counts
precipitation in the bacterial mutation test ([9]; formulated in DMSO, up to 5000 μg/plate): No precipitation was observed
toxicity to the bacteria (thinning of the background lawn of non-revertant bacteria) ([9]; up to 5000 μg/plate): non-toxic to the bacteria at the levels tested
Number of revertants mean (TA98; [20]): 22
Number of revertants x1, x2, x3 (TA98; [20]): 18 and 15 and 33
Number of revertants mean (TA98; [21]): 27
Number of revertants x1, x2, x3 (TA98; [21]): 28 (2×) and 25
Number of revertants mean (TA98; [22]): 24
Number of revertants x1, x2, x3 (TA98; [22]): 21 and 20 and 31
Number of revertants mean (TA98; [23]): 25
Number of revertants x1, x2, x3 (TA98; [23]): 24 and 18 and 33
Number of revertants mean (TA98; [24]): 24
Number of revertants x1, x2, x3 (TA98; [24]): 27 and 26 and 20
Number of revertants mean (TA98; [25]): 45
Number of revertants x1, x2, x3 (TA98; [25]): 43 and 39 and 53
Number of revertants mean (TA98; [26]): 40
Number of revertants x1, x2, x3 (TA98; [26]): 37 and 48 and 34
Number of revertants mean (TA98; [27]): 39
Number of revertants x1, x2, x3 (TA98; [27]): 31 and 40 and 46
Number of revertants mean (TA98; [28]): 45
Number of revertants x1, x2, x3 (TA98; [28]): 44 (2×) and 46
Number of revertants mean (TA98; [29]): 44
Number of revertants x1, x2, x3 (TA98; [29]): 53 and 36 and 43
